Experiment: solvent given as SMILES
[1] = in O=P(c1ccccc1)(c1ccccc1)c1ccccc1Oc1ccccc1P(=O)(c1ccccc1)c1ccccc1

With `C(=C\c1cc2ccccc2c2ccccc12)/c1c2ccccc2cc2ccccc12` as the molecule, how does the fluorescence lifetime (in C1CCOC1) read?
The fluorescence lifetime was 4.63 ns.

For `CCOC(=O)CN1C(=O)C2=C(c3ccc(N4CCCCC4)cc3)N(CC(=O)OCC)C(=O)C2=C1c1ccc(C#N)cc1`, which fluorescence lifetime (in CC#N) is on record?
Its fluorescence lifetime is 3.57 ns.

And the fluorescence lifetime (in CS(C)=O)?
The fluorescence lifetime was 3.72 ns.

What about the fluorescence lifetime (in Cc1ccccc1) of the same molecule?
The fluorescence lifetime was 4.41 ns.

For `CCCCC(CC)COc1ccc2nc(-c3ccc(-c4c(C)noc4C)s3)sc2c1` (configuration not stated), which fluorescence lifetime (in ClCCl) is on record?
The fluorescence lifetime was 1.8 ns.

For `Cn1c(=O)c(/N=N/c2ccc(Nc3ccccc3)c(S(=O)(=O)O)c2)c(O)c2ccccc21`, which fluorescence lifetime (in CS(C)=O) is on record?
Its fluorescence lifetime is 0.05 ns.

Which fluorescence lifetime (in O) does the source give for `Cn1ccc(-n2cncn2)nc1=O` here?
Its fluorescence lifetime is 3.43 ns.

For `c1ccc(N(c2ccccc2)c2ccc(-c3ccc4c(c3)C3(c5ccccc5Oc5ccccc53)c3cc(-c5ccc(N(c6ccccc6)c6ccccc6)cc5)ccc3-4)cc2)cc1`, which fluorescence lifetime (in ClCCl) is on record?
The fluorescence lifetime was 1.2 ns.

What does the source list for `ClC(Cl)=C1c2ccccc2C(C2(Cl)c3ccccc3C(=C(Cl)Cl)c3ccccc32)c2ccccc21` (configuration not stated)?
fluorescence lifetime (in C1CCCCC1): 10.4 ns; fluorescence lifetime (in CCCCCO): 16 ns; fluorescence lifetime (in CCCCO): 12.6 ns; fluorescence lifetime (in CCCO): 11.9 ns; fluorescence lifetime (in CCO): 11.7 ns; fluorescence lifetime (in CO): 11.2 ns

Which fluorescence lifetime (in ClCCl) does the source give for `CCCCCCOc1cc(/C=C/c2cc(OCCCCCC)c(/C=C/c3cc(OCCCCCC)c(C=C4C(=O)c5ccccc5C4=O)cc3OCCCCCC)cc2OCCCCCC)c(OCCCCCC)cc1C=C1C(=O)c2ccccc2C1=O` here?
Its fluorescence lifetime is 1.22 ns.

With `CC(C)(C)c1ccc2c(c1)c1cc(C(C)(C)C)ccc1n2-c1ccc(-c2ccc3c(c2)C(=O)c2ccc(-c4ccc(-n5c6ccc(C(C)(C)C)cc6c6cc(C(C)(C)C)ccc65)cc4)cc2C3=O)cc1` as the molecule, how does the fluorescence lifetime (in Cc1ccccc1) read?
The fluorescence lifetime was 12.6 ns.

What about the fluorescence lifetime (in c1ccc2c(c1)c1ccccc1n2-c1ccc(-c2ccc(-n3c4ccccc4c4ccccc43)cc2)cc1) of the same molecule?
The fluorescence lifetime was 33 ns.

Which fluorescence lifetime [1] does the source give for `CC1(C)c2ccccc2-c2cc3c4ccccc4n(-c4ccc(-c5nc(-c6ccccc6)nc(-c6ccccc6)n5)cc4)c3cc21` here?
Its fluorescence lifetime is 9.3 ns.

For `O=C(c1ccc(-n2c3ccccc3c3ccccc32)cc1)c1ccc(-n2c3ccccc3c3ccccc32)cc1`, which fluorescence lifetime [1] is on record?
The fluorescence lifetime was 59 ns.

Which fluorescence lifetime (in ClCCl) does the source give for `COc1ccc(C#Cc2c3cc4ccccc4cc3c(C#Cc3ccc(OC)cc3)c3cc4sc(C)cc4cc23)cc1` here?
Its fluorescence lifetime is 11.8 ns.

For `CCC1(CC)c2cc(/C=C/c3cccs3)ccc2-c2c1c1c(c3c2C(CC)(CC)c2cc(/C=C/c4cccs4)ccc2-3)C(CC)(CC)c2cc(/C=C/c3cccs3)ccc2-1`, which fluorescence lifetime (in C1CCOC1) is on record?
Its fluorescence lifetime is 1.6 ns.

For `Cc1cc(C)c(-c2c3ccccc3c3ccc4cc5c(-c6c(C)cc(C)cc6C)c6ccccc6c6ccc7cc2c3c4c7c56)c(C)c1`, which fluorescence lifetime (in ClCCl) is on record?
Its fluorescence lifetime is 11.5 ns.

Which results are given for `O=[N+]([O-])c1ccc(C#Cc2ccc3ccccc3c2)cc1`?
fluorescence lifetime (in ClC(Cl)Cl): 0.25 ns; fluorescence lifetime (in ClCCl): 0.35 ns

For `C[Si](C)(C)C#CC(C#C[Si](C)(C)C)=Cc1ccc(C=C(C#C[Si](C)(C)C)C#C[Si](C)(C)C)s1`, which fluorescence lifetime (in ClC(Cl)Cl) is on record?
Its fluorescence lifetime is 0.3 ns.

With `CCN(CC)c1ccc2cc(-c3ccc(-c4c5ccccc5c(-c5ccc(-c6cc7ccc(N(CC)CC)cc7oc6=O)cc5)c5ccccc45)cc3)c(=O)oc2c1` as the molecule, how does the fluorescence lifetime (in ClC(Cl)Cl) read?
The fluorescence lifetime was 8.9 ns.

With `Cc1ccc(-c2cc(-c3ccccc3Cl)c3c(N)nc(N4CCCC4)c(C#N)c3n2)cc1` as the molecule, how does the fluorescence lifetime (in CC#N) read?
The fluorescence lifetime was 11.3 ns.

And the fluorescence lifetime (in CC(C)=O)?
Its fluorescence lifetime is 11.1 ns.

What about the fluorescence lifetime (in CC(C)O) of the same molecule?
Its fluorescence lifetime is 11.3 ns.

And the fluorescence lifetime (in CO)?
Its fluorescence lifetime is 9.7 ns.

And the fluorescence lifetime (in ClC(Cl)Cl)?
The fluorescence lifetime was 13.7 ns.

And the fluorescence lifetime (in ClCCl)?
Its fluorescence lifetime is 13.7 ns.

And the fluorescence lifetime (in c1ccccc1)?
The fluorescence lifetime was 12.8 ns.

What does the source list for `Cc1ccc(C2=C3C=CC(/C=C/c4ccccc4)=[N+]3[B-](F)(F)n3c(Cl)ccc32)cc1`?
fluorescence lifetime (in C1CCCCC1): 3.64 ns; fluorescence lifetime (in C1CCOC1): 3.45 ns; fluorescence lifetime (in C1COCCO1): 3.68 ns; fluorescence lifetime (in CCOC(C)=O): 3.43 ns; fluorescence lifetime (in CO): 3.16 ns; fluorescence lifetime (in Cc1ccccc1): 3.68 ns; fluorescence lifetime (in ClC(Cl)Cl): 3.98 ns

For `C1C[C@H]2CC[C@@H]1N=N2`, which fluorescence lifetime (in CC#N) is on record?
The fluorescence lifetime was 434 ns.

Which results are given for `Cc1ccc(-c2cc(-c3ccccc3)c3c(N)nc(N4CCCC4)c(C#N)c3n2)cc1`?
fluorescence lifetime (in CC#N): 10.3 ns; fluorescence lifetime (in CC(C)=O): 9.9 ns; fluorescence lifetime (in CC(C)O): 10.4 ns; fluorescence lifetime (in CO): 8.5 ns; fluorescence lifetime (in ClC(Cl)Cl): 13.1 ns; fluorescence lifetime (in ClCCl): 13.1 ns; fluorescence lifetime (in c1ccccc1): 12.6 ns

What does the source list for `C(=C\c1ccc2ccccc2c1)/c1ccc(Nc2ccccc2)cc1`?
fluorescence lifetime (in CC#N): 0.43 ns; fluorescence lifetime (in CCCCCC): 0.34 ns

For `C(=C\c1ccc(-c2ccc(/C=C/c3ccc(-n4c5ccccc5c5ccccc54)cc3)s2)s1)/c1ccc(-n2c3ccccc3c3ccccc32)cc1`, which fluorescence lifetime (in C1CCOC1) is on record?
The fluorescence lifetime was 1.06 ns.

And the fluorescence lifetime (in CC#N)?
The fluorescence lifetime was 1.08 ns.

And the fluorescence lifetime (in CC(C)=O)?
The fluorescence lifetime was 1.08 ns.

What about the fluorescence lifetime (in CN(C)C=O) of the same molecule?
Its fluorescence lifetime is 1.08 ns.

And the fluorescence lifetime (in Cc1ccccc1)?
Its fluorescence lifetime is 1.05 ns.

Which fluorescence lifetime (in C1CCCCC1) does the source give for `COc1ccc(C#Cc2ccc(C#Cc3ccc(P(=O)(c4ccccc4)c4ccccc4)cc3)cc2)cc1` here?
Its fluorescence lifetime is 0.63 ns.

What about the fluorescence lifetime (in C1COCCO1) of the same molecule?
Its fluorescence lifetime is 0.73 ns.

And the fluorescence lifetime (in CC#N)?
Its fluorescence lifetime is 1.13 ns.

What about the fluorescence lifetime (in CCO) of the same molecule?
Its fluorescence lifetime is 1.03 ns.

What about the fluorescence lifetime (in CS(C)=O) of the same molecule?
Its fluorescence lifetime is 1.17 ns.

And the fluorescence lifetime (in ClC(Cl)Cl)?
The fluorescence lifetime was 0.78 ns.

And the fluorescence lifetime (in ClCCl)?
Its fluorescence lifetime is 0.87 ns.

For `CC(C)(C)c1ccc2c(c1)c1cc(C(C)(C)C)ccc1n2-c1cc[n+]2c(c1)-c1ccccc1O[B-]2(F)F`, which fluorescence lifetime [1] is on record?
Its fluorescence lifetime is 6.3 ns.

Which fluorescence lifetime (in O=P(c1ccccc1)(c1ccccc1)c1ccc2oc3ccc(P(=O)(c4ccccc4)c4ccccc4)cc3c2c1) does the source give for `CC1(C)c2ccccc2N(c2ccc(-c3ncccn3)cc2)c2ccccc21` here?
The fluorescence lifetime was 11 ns.

What does the source list for `COc1ccc(-c2c(-c3ccc(OC)cc3)c3c4c(cccc4c2-c2ccccc2)C(=O)c2ccccc2-3)cc1`?
fluorescence lifetime (in CC#N): 2.3 ns; fluorescence lifetime (in CO): 0.8 ns

Which fluorescence lifetime (in ClC(Cl)Cl) does the source give for `CCCCCCCCCCCCOc1cc2c3c(ccc4c5c(NC6CCCCC6)cc6c7c(ccc(c1c34)c75)C(=O)N(C1CCCCC1)C6=O)C(=O)N(C1CCCCC1)C2=O` here?
Its fluorescence lifetime is 0.8 ns.

For `CC1=[N+]2C(=C(NC(C)c3ccccc3)c3ccc(C)n3[B-]2(F)F)C=C1c1cc2n(c1)[B-](F)(F)[N+]1=CC=CC1=C2c1c(C)cc(C)cc1C` (configuration not stated), which fluorescence lifetime (in C1CCCCC1) is on record?
The fluorescence lifetime was 2.07 ns.

What about the fluorescence lifetime (in CCOC(C)=O) of the same molecule?
Its fluorescence lifetime is 0.52 ns.

With `COc1cc(OC)cc(C2=[O+][B-](F)(F)OC(c3ccccc3)=C2)c1` as the molecule, how does the fluorescence lifetime (in ClCCl) read?
The fluorescence lifetime was 6.87 ns.

With `[O-]c1c(-c2nc3ccccc3s2)cc2ccc3cccc4ccc1c2c34` as the molecule, how does the fluorescence lifetime (in CC#N) read?
The fluorescence lifetime was 3.81 ns.

And the fluorescence lifetime (in CS(C)=O)?
The fluorescence lifetime was 4.7 ns.

With `COc1ccc(C2=C(C)C3=C(c4c(-c5ccccn5)nc5ccccn45)c4c(C)cc(C)n4[B-](F)(F)[N+]3=C2C)cc1` as the molecule, how does the fluorescence lifetime (in ClCCl) read?
The fluorescence lifetime was 2.2 ns.

Which fluorescence lifetime (in ClCCl) does the source give for `CC1=C(c2ccccc2)C(C)=[N+]2C1=C(c1c(-c3ccccn3)nc3ccccn13)c1c(C)c(-c3ccccc3)c(C)n1[B-]2(F)F` here?
The fluorescence lifetime was 3.4 ns.

For `O=C1/C(=C2\Sc3ccc(S(=O)(=O)O)cc3C2=O)Sc2ccc(S(=O)(=O)O)cc21`, which fluorescence lifetime (in CN(C)C=O) is on record?
The fluorescence lifetime was 4.85 ns.

And the fluorescence lifetime (in CO)?
Its fluorescence lifetime is 0.99 ns.

What about the fluorescence lifetime (in CS(C)=O) of the same molecule?
Its fluorescence lifetime is 0.16 ns.

What about the fluorescence lifetime (in O) of the same molecule?
The fluorescence lifetime was 0.13 ns.

Which fluorescence lifetime (in CO) does the source give for `C/C(=N\Nc1ccc(C#N)cc1)c1ccccn1` here?
Its fluorescence lifetime is 1.69 ns.

Which fluorescence lifetime (in ClC(Cl)Cl) does the source give for `c1ccc(N(c2ccccc2)c2ccc(-c3ccc(-c4ccc(-c5cccs5)c5nsnc45)s3)cc2)cc1` here?
Its fluorescence lifetime is 6.62 ns.

Which fluorescence lifetime (in C1CCCCC1) does the source give for `Cc1cc(C)c(B(c2c(C)cc(C)cc2C)c2cc3ccc4ccccc4c3c3c2cc(N(C)C)c2ccccc23)c(C)c1` here?
The fluorescence lifetime was 8.8 ns.

Which fluorescence lifetime (in C1CCOC1) does the source give for `N#Cc1ccc(/C=C/c2ccc(C=C(c3ccccc3)c3ccccc3)cc2)cc1` here?
The fluorescence lifetime was 0.5 ns.

With `N#C/C(=C\c1ccc(C#N)cc1)c1nc(-c2ccc(Cl)cc2)cs1` as the molecule, how does the fluorescence lifetime (in CC#N) read?
The fluorescence lifetime was 2.85 ns.

Which fluorescence lifetime (in O) does the source give for `CC(=O)Nc1ccc2c(c1)c(=O)c1ccccc1n2CCCCCC(=O)O` here?
The fluorescence lifetime was 17.1 ns.

Which fluorescence lifetime (in Cc1ccccc1) does the source give for `N#Cc1c(-n2c3ccccc3c3ccccc32)cccc1-n1c2ccccc2c2ccccc21` here?
Its fluorescence lifetime is 2.6 ns.

And the fluorescence lifetime [1]?
The fluorescence lifetime was 4 ns.

For `C#CCn1c2ccccc2c2cc(/C=C/c3c(Cl)c(C)c4n3[B-](F)(F)[N+]3=C(C)C(Cl)=C(C)C3=C4c3ccc(I)cc3)ccc21`, which fluorescence lifetime (in CC#N) is on record?
Its fluorescence lifetime is 3.95 ns.

And the fluorescence lifetime (in CS(C)=O)?
Its fluorescence lifetime is 3.06 ns.

And the fluorescence lifetime (in ClC(Cl)Cl)?
The fluorescence lifetime was 4.24 ns.

With `[NH3+]c1ccc2ccc([O-])cc2c1` as the molecule, how does the fluorescence lifetime (in O) read?
The fluorescence lifetime was 13.5 ns.

Which fluorescence lifetime (in ClCCl) does the source give for `F[B-]1(F)Oc2ccccc2-c2c3c(c4c([n+]21)CCc1ccccc1-4)CCc1ccccc1-3` here?
The fluorescence lifetime was 2.15 ns.

For `C[n+]1ccc2c(ccc3c[n+](C)ccc32)c1`, which fluorescence lifetime (in CC#N) is on record?
The fluorescence lifetime was 6.6 ns.
